Biological target: bacterial protein synthesis (S30 extract from quinolone-succeptable Streptococcus pneumoniae ATCC 46919)
Experiment: Translation assay, firefly luciferase reporter system with S30 Streptococcus pneumoniae extract
Format: biochemical
Conditions: luciferase mRNA, read-out: IC50, concentration causing 50% inhibition of bacterial protein synthesis
Method: Bacterial protein synthesis inhibitory activity of representative compounds of this invention having formula (I) and the commercially-available antibacterials in TABLE 2 was determined by translation assays using the firefly luciferase reporter system described by Murray et al., (2001), “Staphylococcus aureus Cell Extract Transcription-Translation Assay: Firefly Luciferase Reporter System for Evaluating Protein Translation Inhibitors,” Antimicrob. Agents Chemother. 45(6): 1900-1904, but replacing the Staphylococcus aureus S30 extract described therein with S30 Streptococcus pneumoniae extract from quinolone-succeptable Streptococcus pneumoniae ATCC 46919, and replacing plasmid coding for the luciferase gene with mRNA (encoding produced by in vitro transcription from the plasmid pAS10rbs3) which encoded the luciferase gene with an upstream Streptococcus pneumoniae promoter and Shine-Dalgarno site.

CC(=O)NC[C@H]1CN(c2ccc(N3CCOCC3)c(F)c2)C(=O)O1 [Linezolid]
IC50: ~3000 nM

Source: patent US7737159B2, “Antibacterial compounds” (Abbott Laboratories, priority 2004, dated 2010)
